Results taken from US7429602B2, “Treating conjunctivitis by topically administering an epinastine solution to the conjunctiva” (Boehringer Ingelheim Pharma GmbH & Co. Kg, priority 1999, dated 2008).

System: conjunctiva (eosinophils, neutrophils, mast cell degranulation)
Conditions: conjunctiva examined two hours after ovalbumin
Procedure: 72 hours after the rats have been sensitized by injecting antiserum into the eyelids of the test animals, a fresh provocation was induced in them by intravenous administration of ovalbumin. Some of the experimental animals were pretreated by the administration of solution containing epinastine according to the invention into the conjunctival sac 15 minutes before the ovalbumin is administered. Two hours after the administration of ovalbumin the experimental animals were killed and the conjunctiva was investigated for its content of eosinophils and neutrophils and the mast cell granulation was determined.

[1] = epinastine solution into the conjunctival sac 15 minutes before i.v. ovalbumin, p<0.01

NC1=NCC2c3ccccc3Cc3ccccc3N12 (stereo not drawn) [epinastine, 3-amino-9,13b-dihydro-1H-dibenz-[c,f]imidazol[1,5-a]azepine]
content of eosinophils in conjunctiva (epinastine solution 0.05-0.5% into the conjunctival sac 15 minutes before i.v. ovalbumin): significantly lower | content of lymphocytes in conjunctiva [1]: significantly lower | inhibition of mast cell degranulation [1]: roughly 35%
